Here are results for 8 compounds from US20110319626A1 (BRADFORD PHARMA LIMITED, priority 2009, published 2011).

The experiment addresses T1, HMG-CoA reductase (Homo sapiens, UniProt P04035).
T1 construct: oxidation of NADPH by the catalytic subunit of HMGR in the presence of the substrate HMG-CoA; purchased Sigma-Aldrich CS1090 (kit); H8789 (HMG-CoA reductase)
T1 sequence (P04035 340-888 limits assumed): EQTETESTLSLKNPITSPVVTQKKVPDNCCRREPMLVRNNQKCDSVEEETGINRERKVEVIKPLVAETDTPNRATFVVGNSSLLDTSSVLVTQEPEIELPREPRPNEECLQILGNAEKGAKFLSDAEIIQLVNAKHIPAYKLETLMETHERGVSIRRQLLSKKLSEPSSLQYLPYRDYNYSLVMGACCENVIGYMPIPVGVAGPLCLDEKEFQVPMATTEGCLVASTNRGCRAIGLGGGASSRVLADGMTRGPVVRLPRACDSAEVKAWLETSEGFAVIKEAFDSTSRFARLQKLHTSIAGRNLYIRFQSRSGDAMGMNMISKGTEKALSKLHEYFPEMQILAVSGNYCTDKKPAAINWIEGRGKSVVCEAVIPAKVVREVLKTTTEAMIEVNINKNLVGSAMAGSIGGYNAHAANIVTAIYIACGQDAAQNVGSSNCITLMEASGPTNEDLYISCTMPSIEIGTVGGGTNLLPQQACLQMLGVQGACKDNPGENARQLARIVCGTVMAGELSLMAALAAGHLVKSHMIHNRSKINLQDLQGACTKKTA
The experiment is described as follows: HMG-CoA Reductase assay kit (spectrophotometric NADPH absorbance at 340 nm). Type of experiment: biochemical. Particulars: NADPH and HMG-CoA both 200 μM, inhibitor concentrations varied from 0 nM to 50 nM, 37° C. Here is the method:
All assays were carried out in a reaction buffer containing […] KxPO4 at pH 7.2, 1 mM EDTA, 500 mM KCl and 1 mg/ml BSA. The concentrations of NADPH and HMG-CoA were both 200 μM. […] Absorbance readings were then taken every 20 seconds for 600 seconds. […] After these were identified, assays were carried out varying their concentrations from 0 nM to 50 nM allowing IC50 values to be calculated.
This is illustrated in the following reaction scheme:
HMG-CoA+2NADPH+2H^+→mevalonate+2NADP^++CoA-SH
Add a buffer to all samples. • b. […] Add the reconstituted NADPH to all samples. • d. Add Substrate Solution (HMG-CoA) to all samples. • e. […] Mix the samples thoroughly.
3. The kinetics programme was started immediately.

As usually defined, the IC50 is the concentration at which inhibition is half-maximal. With `CC(C)c1c(C(=O)Nc2ccccc2)c(-c2ccccc2)c(-c2ccc(F)cc2)n1CC[C@@H]1C[C@@H](O)CC(=O)O1`, inhibition was half-maximal at 3 nM (IC50).

Consider `COC1C[C@H](OC(=O)c2cccnc2)C[C@@H](CCn2c(-c3ccc(F)cc3)c(-c3ccccc3)c(C(=O)Nc3ccccc3)c2C(C)C)O1` (some centres unmarked), for which the concentration for half-maximal inhibition (IC50) is under 1 nM.

As to `CCCOC1C[C@H](O)C[C@@H](CCn2c(-c3ccc(F)cc3)c(-c3ccccc3)c(C(=O)Nc3ccccc3)c2C(C)C)O1` (some centres unmarked), the half-inhibitory concentration (IC50) was under 1 nM. Compound `CC(C)c1c(C(=O)Nc2ccccc2)c(-c2ccccc2)c(-c2ccc(F)cc2)n1CC[C@@H]1C[C@@H](O)CC(OC2CCCCC2)O1` (some centres unmarked) gave an IC50 of under 1 nM. Under `CC(C)OC1C[C@H](OCc2ccccc2)C[C@@H](CCn2c(-c3ccc(F)cc3)c(-c3ccccc3)c(C(=O)Nc3ccccc3)c2C(C)C)O1` (some centres unmarked) stands 4 nM. Under `CC(C)c1c(C(=O)Nc2ccccc2)c(-c2ccccc2)c(-c2ccc(F)cc2)n1CC[C@@H]1C[C@@H](OCc2ccccc2)CC(OC(C)(C)C)O1` (some centres unmarked) stands 3 nM. Regarding `C=CCOC1C[C@H](OCc2ccccc2)C[C@@H](CCn2c(-c3ccc(F)cc3)c(-c3ccccc3)c(C(=O)Nc3ccccc3)c2C(C)C)O1` (some centres unmarked), half-maximal inhibition (IC50) required 1 nM.

As to `COc1ccc(OC2C[C@H](O)C[C@@H](CCn3c(-c4ccc(F)cc4)c(-c4ccccc4)c(C(=O)Nc4ccccc4)c3C(C)C)O2)c(OC)c1` (some centres unmarked), the half-maximal inhibitory concentration (IC50) was under 1 nM.
